For series [1] the following is noted: cited from earlier work.
A short description of series [2]: Dissolution profile in biorelevant media (FaSSIF / FaSSGF), paddle apparatus. Format: physicochemical. Particulars: FaSSIF (fenofibrate, nifedipine, nimodipine, nabumetone) or FaSSGF (ibuprofen, gemfibrozil); 900 ml, 37° C., 75 rpm. The method, then:
Dissolution profile: The drug release profiles of the above formulations and the reference products (TRICOR ® 48 mg Fenofibrated tablets and Buplex® 200 mg Ibuprofen tablets) was tested in biorelevant dissolution media; using Fasted State Simulated Intestinal Fluid (FaSSIF) for Tricor® and Fasted State Simulated Gastric Fluid (FaSSGF) for Buplex®. USP […] (Paddle) was used.
Media temperature: 37° C.;
Paddle rotation speed: 75 rpm;
The method used to measure the dissolution rate is as described under ‘dissolution profile’ in the previous example. […] All other conditions remained the same.

The structures appear in SMILES notation. Like-named read-outs stand apart in the source and are kept apart here.

Take `Cc1ccc(C)c(OCCCC(C)(C)C(=O)O)c1` [Gemfibrozil]: in series [1] (at 25° C.), the solubility in water is less than 1000 µg/mL.

In the case of `CC(C)Cc1ccc(C(C)C(=O)O)cc1` (stereo not shown) [Ibuprofen, iso-butyl-propanoic-phenolic acid], the “% drug dissolved / rate and extent of dissolution versus marketed product” value in series [2] is 1:2.7 ratio of Maisine:Kolliphor showed higher dissolution than a 1:1.8 ratio. In addition, the solubility in water entry in series [1] is given as “Less than 1 mg/ml”.

As to `COc1ccc2cc(CCC(C)=O)ccc2c1` [Nabumetone], the “solubility in water (in words)” value in series [1] is given as “practically insoluble in water”.

(Values after US20170157051A1, “SOLUBILITY ENHANCEMENT FOR HYDROPHOBIC DRUGS” (Freund Pharmatec Ltd., priority 2013, published 2017).)
